pIC50: −log10 of the molar value.

For the experiment, the system named is BaF3-FL KIT D816V or BaF3-FL KIT V560G/D816V cell line. Nature of the experiment: Cell-based assays of c-Kit mutant kinase activity (cell growth, ATPlite). As to conditions: at least one of the c-kit cell assays of Example 26. The procedure: The c-Kit mutant D816V inhibitors were assessed using an engineered BaF3-FL KIT D816V or BaF3-FL KIT V560G/D816V cell line. The BaF3-FL KIT D816V cell lines were created by introduction of KIT mutant (D816V) full length constructs that render the cells dependent on the introduced kinase for growth. Inhibitors of c-Kit mutant D816V kinase reduce or eliminate the mediated c-kit mutant D816V kinase activation, resulting in reduced cell proliferation of the BaF3-FL Kit mutant D816V cells. This inhibition is measured by the effect of compound concentration on cell growth to assess IC50 values. BaF3-FL KIT D816V cells were seeded at 1×10^4 cells per well of a 96 well cell culture plate in 50 μl of cell culture medium of RPMI Medium 1X (Invitrogen #11875-093) supplemented with 10% FBS (Invitrogen #10438), 1% Non Essential Amino Acids(Invitrogen #11140), 1% Penicillin Streptomycin (Invitrogen #15140), 1% L-Glutamine (Invitrogen #25030-081). Compounds were dissolved in DMSO at a concentration of 5 mM and were serially diluted 1:3 for a total of eight points and added to the cells to a final maximum concentration of 10 μM in 100 μl cell culture medium (final concentration 0.2% DMSO). Cells were also treated with Dasatinib as a positive control. The cells were incubated at 37° C., 5% CO2 for three days. ATPlite Buffer (Perkin Elmer #6016739) and substrate were equilibrated to room temperature, and enzyme/substrate Recombinant Firefly Luciferase/D-Luciferin was reconstituted. The cell plates were equilibrated to room temperature for 30 minutes, then lysed by addition of 25 uL per well of the ATPlite Reagent. The plate was mixed for 5 minutes on a plate shaker to lyse the cells. The plates were read on a Tecan Safire using Luminescence protocol modified to read 0.1 s per well. The luminescence reading assesses the ATP content, which correlates directly with cell number such that the reading as a function of compound concentration is used to determine the IC50 value.
Plasmids P75635 and P75565 were engineered for mammalian cell expression. In both plasmids, full-length human v-kit Hardy-Zuckerman 4 feline sarcoma viral oncogene homolog gene (NCBI accession NM_000222, KIT, residues M1-V976) was subcloned into the pCI-Neo vector (Promega E1841). Plasmid P75635 contains the mutation of residue Aspartic acid 816 to Valine. Plasmid P75565 contains the double mutation of residues Valine 560 to Glycine and Aspartic acid 816 to Valine. The pCI-neo Mammalian Expression Vector carries the human cytomegalovirus (CMV) immediate-early enhancer/promoter region to promote constitutive expression of KIT and contains the neomycin phosphotransferase gene, a selectable marker.
It is understood that the results of these assays may vary as assay conditions are varied. Inhibition levels determined under the conditions described herein represent a relative activity for the compounds tested under the specific conditions employed. The cell based assays are likely to show variability due to the complexity of the system and the sensitivity thereof to any changes in the assay conditions. […] In some instances, the compounds were not tested in all of the assays, or assay results were not valid.
(Cellular ATP, detected with luciferase, serves as a proxy for viable cell number.)
On to `Cc1n[nH]c(C(=O)Nc2cnc3[nH]c(-c4ccc(C(=O)N5CCOCC5)cc4)cc3c2)c1C` [P-2138, 3,4-dimethyl-N-[2-[4-(morpholine-4-carbonyl)phenyl]-1H-pyrrolo[2,3-b]pyridin-5-yl]-1H-pyrazole-5-carboxamide], for which the pIC50 is > 5.00.

Take `Cc1nc(C)c(-c2cc3cc(NC(=O)c4[nH]nc(C)c4C)cnc3[nH]2)s1` [P-2139, N-[2-(2,4-dimethylthiazol-5-yl)-1H-pyrrolo[2,3-b]pyridin-5-yl]-3,4-dimethyl-1H-pyrazole-5-carboxamide]: the pIC50 is > 5.00.

In the case of `Cc1n[nH]c(C(=O)Nc2cnc3[nH]c(-c4cnn(C(F)F)c4)cc3c2)c1C` [P-2140, N-[2-[1-(difluoromethyl)pyrazol-4-yl]-1H-pyrrolo[2,3-b]pyridin-5-yl]-3,4-dimethyl-1H-pyrazole-5-carboxamide], the pIC50 was > 5.00.

In the case of `Cc1n[nH]c(CNc2cnc3[nH]c(-c4ccc(F)cc4)cc3c2)c1Cl` [P-2141, N-[(4-chloro-5-methyl-1H-pyrazol-3-yl)methyl]-2-(4-fluorophenyl)-1H-pyrrolo[2,3-b]pyridin-5-amine], the pIC50 is > 5.00.

In the case of `Cc1cc(CNc2cnc3[nH]c(-c4ccc(F)cc4)cc3c2)[nH]n1` [P-2142, 2-(4-fluorophenyl)-N-[(5-methyl-1H-pyrazol-3-yl)methyl]-1H-pyrrolo[2,3-b]pyridin-5-amine], the pIC50 is > 5.00.

`Cc1n[nH]c(C(=O)Nc2cnc3[nH]c(-c4cccc(Cl)c4C)cc3c2)c1C` [P-2147, N-[2-(3-chloro-2-methyl-phenyl)-1H-pyrrolo[2,3-b]pyridin-5-yl]-3,4-dimethyl-1H-pyrazole-5-carboxamide]: the pIC50 is > 5.00.

As for `O=C(Nc1cnc2[nH]c(-c3ccc(F)cc3)cc2c1)c1cc(C(F)(F)F)n[nH]1` [P-2156, N-[2-(4-fluorophenyl)-1H-pyrrolo[2,3-b]pyridin-5-yl]-3-(trifluoromethyl)-1H-pyrazole-5-carboxamide], the pIC50 is > 5.00.

In the case of `COc1nc(C)ccc1-c1cc2cc(NC(=O)c3[nH]nc(C)c3C)cnc2[nH]1` [P-2170, N-[2-(2-methoxy-6-methyl-3-pyridyl)-1H-pyrrolo[2,3-b]pyridin-5-yl]-3,4-dimethyl-1H-pyrazole-5-carboxamide], the pIC50 is > 5.00.

Take `COc1nccc(-c2cc3cc(NC(=O)c4[nH]nc(C)c4C)cnc3[nH]2)c1Cl` [P-2171, N-[2-(3-chloro-2-methoxy-4-pyridyl)-1H-pyrrolo[2,3-b]pyridin-5-yl]-3,4-dimethyl-1H-pyrazole-5-carboxamide]: the pIC50 was > 5.00.

For `CCc1n[nH]c(C(=O)Nc2cnc3[nH]c(-c4ccc(F)cc4)cc3c2)c1Cl` [P-2173, 4-chloro-3-ethyl-N-[2-(4-fluorophenyl)-1H-pyrrolo[2,3-b]pyridin-55-yl]-1H-pyrazole-5-carboxamide], the pIC50 is > 5.00.

For the compound `Cc1[nH]nc(C(=O)Nc2cnc3[nH]cc(-c4cccc(N5CCNCC5)n4)c3c2)c1C` [P-2190, 4,5-dimethyl-N-(3-(6-(piperazin-1-yl)pyridin-2-yl)-1H-pyrrolo[2,3-b]pyridin-5-yl)-1H-pyrazole-3-carboxamide], the pIC50 was > 5.00.

Take `Cc1[nH]nc(C(=O)Nc2cnc3[nH]cc(-c4cccc(N5CCOCC5)n4)c3c2)c1C` [P-2192, 4,5-dimethyl-N-(3-(6-morpholinopyridin-2-yl)-1H-pyrrolo[2,3-b]pyridin-5-yl)-1H-pyrazole-3-carboxamide]: the pIC50 was > 5.00.

Turning to `Cc1[nH]nc(C(=O)Nc2cnc3[nH]cc(-c4ccnc(N5CCOCC5)c4)c3c2)c1C` [P-2193, 4,5-dimethyl-N-(3-(2-morpholinopyridin-4-yl)-1H-pyrrolo[2,3-b]pyridin-5-yl)-1H-pyrazole-3-carboxamide], the pIC50 was > 5.00.

As for `CC(=O)N1CC(n2cc(-c3cc4cc(NC(=O)c5n[nH]c(C)c5C)cnc4[nH]3)c(C)n2)C1` [P-2194, N-(2-(1-(1-acetylazetidin-3-yl)-3-methyl-1H-pyrazol-4-yl)-1H-pyrrolo[2,3-b]pyridin-5-yl)-4,5-dimethyl-1H-pyrazole-3-carboxamide], the pIC50 is > 5.00.

For `Cc1nn(C2CNC2)cc1-c1cc2cc(NC(=O)c3n[nH]c(C)c3C)cnc2[nH]1` [P-2195, N-(2-(1-(azetidin-3-yl)-3-methyl-1H-pyrazol-4-yl)-1H-pyrrolo[2,3-b]pyridin-5-yl)-4,5-dimethyl-1H-pyrazole-3-carboxamide], the pIC50 was > 5.00.

Take `Cc1[nH]nc(C(=O)Nc2cnc3[nH]c(-c4cnn(C5COC5)c4C)cc3c2)c1C` [P-2196, 4,5-dimethyl-N-(2-(5-methyl-1-(oxetan-3-yl)-1H-pyrazol-4-yl)-1H-pyrrolo[2,3-b]pyridin-5-yl)-1H-pyrazole-3-carboxamide]: the pIC50 was > 5.00.

For `Cc1[nH]nc(C(=O)Nc2cnc3[nH]c(-c4cnn(C5CNC5)c4C)cc3c2)c1C` [P-2197, N-(2-(1-(azetidin-3-yl)-5-methyl-1H-pyrazol-4-yl)-1H-pyrrolo[2,3-b]pyridin-5-yl)-4,5-dimethyl-1H-pyrazole-3-carboxamide], the pIC50 is > 5.00.

For the compound `Cc1[nH]nc(C(=O)Nc2cnc3[nH]c(-c4cnn(C5CCNCC5)c4C)cc3c2)c1C` [P-2198, 4,5-dimethyl-N-(2-(5-methyl-1-(piperidin-4-yl)-1H-pyrazol-4-yl)-1H-pyrrolo[2,3-b]pyridin-5-yl)-1H-pyrazole-3-carboxamide], the pIC50 was > 5.00.

On to `CC(=O)N1CCC(n2ncc(-c3cc4cc(NC(=O)c5n[nH]c(C)c5C)cnc4[nH]3)c2C)CC1` [P-2199, N-(2-(1-(1-acetylpiperidin-4-yl)-5-methyl-1H-pyrazol-4-yl)-1H-pyrrolo[2,3-b]pyridin-5-yl)-4,5-dimethyl-1H-pyrazole-3-carboxamide], for which the pIC50 is > 5.00.

Turning to `Cc1[nH]nc(C(=O)Nc2cnc3[nH]c(-c4cnn(C5CCN(C(=O)C6CC6)CC5)c4C)cc3c2)c1C` [P-2200, N-(2-(1-(1-(cyclopropanecarbonyl)piperidin-4-yl)-5-methyl-1H-pyrazol-4-yl)-1H-pyrrolo[2,3-b]pyridin-5-yl)-4,5-dimethyl-1H-pyrazole-3-carboxamide], the pIC50 was > 5.00.

Take `Cc1nn(C2CCNCC2)cc1-c1cc2cc(NC(=O)c3n[nH]c(C)c3C)cnc2[nH]1` [P-2201, 4,5-dimethyl-N-(2-(3-methyl-1-(piperidin-4-yl)-1H-pyrazol-4-yl)-1H-pyrrolo[2,3-b]pyridin-5-yl)-1H-pyrazole-3-carboxamide]: the pIC50 was > 5.00.

With `CC(=O)N1CCC(n2cc(-c3cc4cc(NC(=O)c5n[nH]c(C)c5C)cnc4[nH]3)c(C)n2)CC1` [P-2202, N-(2-(1-(1-acetylpiperidin-4-yl)-3-methyl-1H-pyrazol-4-yl)-1H-pyrrolo[2,3-b]pyridin-5-yl)-4,5-dimethyl-1H-pyrazole-3-carboxamide], the pIC50 was > 5.00.

For the compound `Cc1nn(C2CCN(C(=O)C3CC3)CC2)cc1-c1cc2cc(NC(=O)c3n[nH]c(C)c3C)cnc2[nH]1` [P-2203, N-(2-(1-(1-(cyclopropanecarbonyl)piperidin-4-yl)-3-methyl-1H-pyrazol-4-yl)-1H-pyrrolo[2,3-b]pyridin-5-yl)-4,5-dimethyl-1H-pyrazole-3-carboxamide], the pIC50 was > 5.00.

With `Cc1[nH]nc(C(=O)Nc2cnc3[nH]c(-c4ccnc(NC5CC5)c4)cc3c2)c1C` [P-2204, N-(2-(2-(cyclopropylamino)pyridin-4-yl)-1H-pyrrolo[2,3-b]pyridin-5-yl)-4,5-dimethyl-1H-pyrazole-3-carboxamide], the pIC50 is > 5.00.

`Cc1[nH]nc(C(=O)Nc2cnc3[nH]c(-c4ccnc(NC(=O)C5CC5)c4Cl)cc3c2)c1C` [P-2205, N-(2-(3-chloro-2-(cyclopropanecarboxamido)pyridin-4-yl)-1H-pyrrolo[2,3-b]pyridin-5-yl)-4,5-dimethyl-1H-pyrazole-3-carboxamide]: the pIC50 is > 5.00.

With `Cc1[nH]nc(C(=O)Nc2cnc3[nH]c(-c4ccnc(NC(=O)C5CC5)c4)cc3c2)c1C` [P-2206, N-(2-(2-(cyclopropanecarboxamido)pyridin-4-yl)-1H-pyrrolo[2,3-b]pyridin-5-yl)-4,5-dimethyl-1H-pyrazole-3-carboxamide], the pIC50 is > 5.00.

Usually pIC50 stands for −log10 of the IC50, conventionally taken in molar units. The low end stands for a high IC50, the high end for a low IC50.

Source of the values: patent US10301280B2 (Plexxikon Inc., priority 2012, dated 2019).
